In patent US4857516A, “Coumaran derivatives and their pharmaceutical use” (Takeda Chemical Industries, Ltd., priority 1986, dated 1989) one finds inhibition and IC50 data, which are given here for six compounds.

As usually defined, the inhibition is the share of the control response that was lost under treatment. What is called IC50 is the concentration needed to halve the response being measured.

One test concerns the target T1, 5-lipoxygenase (Rattus norvegicus, UniProt P12527).
T1 construct: endogenous in cells; host or cells: RBL-1 (rat basophilic leukemia cells)
T1 sequence (P12527 1-673): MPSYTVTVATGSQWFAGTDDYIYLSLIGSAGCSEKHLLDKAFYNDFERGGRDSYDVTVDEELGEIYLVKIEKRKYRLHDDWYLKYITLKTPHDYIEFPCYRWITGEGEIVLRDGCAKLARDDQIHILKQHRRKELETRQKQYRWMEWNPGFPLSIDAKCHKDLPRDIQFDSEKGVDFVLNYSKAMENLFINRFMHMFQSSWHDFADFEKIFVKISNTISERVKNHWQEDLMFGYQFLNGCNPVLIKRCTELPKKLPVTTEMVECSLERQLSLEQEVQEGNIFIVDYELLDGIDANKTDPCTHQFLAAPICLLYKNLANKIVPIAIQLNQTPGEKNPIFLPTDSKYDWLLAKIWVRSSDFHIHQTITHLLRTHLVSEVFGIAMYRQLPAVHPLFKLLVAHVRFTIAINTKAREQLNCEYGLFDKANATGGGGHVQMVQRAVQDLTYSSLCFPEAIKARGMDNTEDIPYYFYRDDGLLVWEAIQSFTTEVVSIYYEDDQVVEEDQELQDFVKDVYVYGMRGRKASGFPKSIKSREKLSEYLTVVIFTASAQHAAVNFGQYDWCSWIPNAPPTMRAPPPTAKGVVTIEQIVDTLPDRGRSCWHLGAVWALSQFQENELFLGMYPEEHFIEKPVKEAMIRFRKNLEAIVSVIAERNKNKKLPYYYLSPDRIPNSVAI
Description: Inhibition of 5-lipoxygenase (5-HETE production in RBL-1 cells). To be noted: for inhibition at 1 µM: 10^-6 M; for inhibition at 0.1 µM: 10^-7 M; for inhibition at 0.01 µM: 10^-8 M. Type of test: cell-based. The protocol: 10^7 RBL-1 cells (rat basophilic leukemia cells) were suspended in 0.5 ml of MCM (mast cell medium). […] Then 4 ml of ethanol was added, and the mixture was well shaken and kept at room temperature for 10 min.
The mixture was centrifuged for 10 min. (2000 rpm), and the supernatant was separated. The supernatant obtained was concentrated to dryness under reduced pressure. To the residue 0.5 ml of 60 v/v % aqueous methanol was added. One hundred μl of this solution was subjected to high performance liquid chromatography for quantitative analysis of 5-HETE (5-hydroxyeicosatetraenoic acid). The amount of 5-HETE was determined by measurement of the absorbance at 237 nm with a UV absorption monitor.
The inhibitory effect (IE) of production of 5-HETE is expressed by (1-b/a)×100, wherein a is the peak height or the area corrected with the peak due to the internal standard in the absence of the compound (I) or a pharmaceutically acceptable salt thereof, and b is the peak height or peak area corrected with the peak due to the internal standard in the presence of the compound (I) or a pharmaceutically acceptable salt thereof.

The subject of test [1] is lipid peroxide production in rat brain homogenates. As to the kind of experiment: Inhibitory action on lipid peroxide production in rat brain homogenates. Conditions: 5 v/v % rat brain homogenate, pH 7.4, 1 hour at 37° C.; read-out: Inhibition (IC50) of lipid peroxide production. Type of test: biochemical. The protocol:
The male SD rat (12 weeks) brain tissue was extracted under anesthesia after depletion. The extracted brain tissue was used as 5 v/v % homogenate in phosphate buffer (pH 7.4). After incubation of the homogenate for 1 hour at 37° C., the peroxide produced was determined by the thiobarbituric acid method according to the method described in Analytical Biochemistry, 95, 551 (1979).
Before incubation, test compounds were added in 5 v/v % homogenate so that their final concentration becomes 10^-5 M. […]

The subject of test [2] is generation of HHT in rat platelets. As to the kind of experiment: Inhibitory effect on the generation of 12-hydroxyheptadeca-5,8,10-trienoic acid (HHT) in rat platelets. The test is classed as cell-based. Conditions: rat platelet rich plasma; for inhibition at 100 µM: 10^-4 M; for inhibition at 10 µM: 10^-5 M. The protocol: Blood was collected in 3.2 v/v % sodium citrate (0.8 ml for 7.2 ml of blood) from the abdominal aorta of male Wister rats (Jcl, 12 to 15 weeks) anesthesized with pentobarbital. Platelet rich plasma (PRP) was obtained by centrifuging the blood at 800 rpm for 10 min at room temperature. Platelet poor plasma (PPP) was prepared by centrifuging the remaining blood at 3,000 rpm for 10 min. The platelet concentration of PRP was adjusted to 1,000,000/μl with PPP. […]
The reaction was stopped by adding 100 ml of ethanol and the mixture was allowed to stand for 10 min. at room temperature. The reaction mixture was centrifuged at 2,000 rpm for 10 min. and the supernatant obtained was evaporated. To the concentrate, 0.2 ml of 60 v/v % aqueous ethanol was added.
100 μl of this solution was subjected to high performance liquid chromatography for quantitative analysis of HHT. The amount of HHT was determined by measurement of absorbance at 237 nm with a UV absorption monitor.
The inhibitory effect (IE) on the generation of HHT is expressed by (1-b/a)×100, wherein a is the peak height or the peak area corrected with the peak due to the internal standard in the absence of the compound (I) or a pharmaceutically acceptable salt thereof, and b is the peak height or the peak area corrected with the peak due to the internal standard in the compound (I) or a pharmaceutically acceptable salt thereof.

On 5-lipoxygenase, `Cc1c(C)c2c(c(C)c1O)C(c1cccnc1)C(C)(C)O2` (stereo not drawn) [Example 1, 5-hydroxy-2,2,4,6,7-pentamethyl-3-(3-pyridyl)-2,3-dihydrobenzofuran] came in with an inhibition at 1 µM of 89%, an inhibition at 0.1 µM of 57% and an inhibition at 0.01 µM of 16%. Besides, the IC50 in test [1] stood at 220 nM. In test [2], the inhibition at 100 µM was 76% and testing at 10 µM gave an inhibition of 47%.

`Cc1c(C)c2c(c(C)c1O)C(c1cccnc1)C1(CCCC1)O2` (stereo not drawn) [Example 2]: at 5-lipoxygenase, the inhibition at 1 µM was found to be 91%, at 0.1 µM the inhibition was 70% and 0.01 µM produced 18% inhibition. In addition, in test [1], the IC50 amounted to 750 nM. Also, in test [2], the inhibition at 100 µM was 79% and at 10 µM the inhibition was 52%.

On 5-lipoxygenase, `Cc1c(C)c2c(c(C)c1O)C(c1cccnc1)C1(CCCCC1)O2` (stereo not drawn) [Example 3, 5-hydroxy-4,6,7-trimethyl-3-(3-pyridyl)-3H-benzofuran-2-spirocyclohexane] yielded an inhibition at 1 µM of 91%, an inhibition at 0.1 µM of 64% and an inhibition at 0.01 µM of 20%. Also, the IC50 in test [1] turned out to be 150 nM. Also, in test [2], the inhibition at 100 µM came out at 40% and the inhibition at 10 µM is 7%.

As for `Cc1c(C)c2c(c(C)c1O)C(c1ccccn1)C(C)(C)O2` (stereo not drawn) [Example 4], at 5-lipoxygenase, testing at 1 µM gave an inhibition of 98%, the inhibition at 0.1 µM is 18% and the inhibition at 0.01 µM stood at 0%. For the same compound, the IC50 in test [1] is 250 nM. Also, in test [2], testing at 100 µM gave an inhibition of 29% and at 10 µM the inhibition was 9%.

Take `Cc1c2c(c3ccccc3c1O)OC(C)(C)C2c1cccnc1` (stereo not drawn) [Example 5]: at 5-lipoxygenase, 1 µM produced 99% inhibition, the inhibition at 0.1 µM came out at 22% and the inhibition at 0.01 µM was determined as 0%. In addition, the IC50 in test [1] worked out at 120 nM. In test [2], this compound registered an inhibition at 100 µM of 84% and an inhibition at 10 µM of 54%.

Regarding `Cc1c(C)c2c(c(C)c1O)C(c1ccccc1)C(C)(C)O2` (stereo not drawn) [Example 6, 5-hydroxy-2,2,4,6,7-pentamethyl-3-phenyl-2,3-dihydrobenzofuran], at 5-lipoxygenase, 1 µM produced 92% inhibition, 0.1 µM produced 18% inhibition and the inhibition at 0.01 µM stood at 0%. In addition, in test [1], the IC50 was found to be 130 nM. Also, in test [2], the inhibition at 100 µM is 49% and 10 µM produced 7% inhibition.
